Legend:
[1] = target: T1, human EHMT1 982-1266 (Homo sapiens, UniProt Q9H9B1); experiment: EHMT1 enzyme assay on histone peptide substrate (3H-SAM SPA); details: EHMT1 IC50, recombinant human EHMT1 982-1266, histone peptide substrate
T1 sequence (Q9H9B1 982-1266): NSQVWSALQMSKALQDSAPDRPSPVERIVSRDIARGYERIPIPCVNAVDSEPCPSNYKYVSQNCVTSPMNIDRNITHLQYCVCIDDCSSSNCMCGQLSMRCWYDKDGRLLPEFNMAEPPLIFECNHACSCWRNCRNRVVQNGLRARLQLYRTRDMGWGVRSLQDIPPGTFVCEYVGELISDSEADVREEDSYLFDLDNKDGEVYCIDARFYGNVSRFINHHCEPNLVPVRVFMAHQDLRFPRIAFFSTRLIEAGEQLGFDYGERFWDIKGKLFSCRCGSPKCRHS

[2] = test system: H3K9me2 in HCT116 cells; experiment: HCT116 H3K9me2 in-cell western assay; assay type: cell-based; details: Homo sapiens, HCT-116, 72 h, HCT116 cells, 72 hours incubation; read-out: H3K9me2 ICW IC50
Description: HCT116 cell line was purchased from ATCC (Manassas, VA, USA). […] Penicillin-Streptomycin and heat inactivated fetal bovine serum were purchased from Hyclone (Logan, UT, USA). DPBS, Corning^R were purchased from VWR (Radnor, PA, USA). Triton′ X-100 was purchased from Sigma (St. Louis, MO, USA). Intercept blocking buffer, DRAQ5, Licor Odyssey Infrared Scanner were purchased from Licor Biosciences (Lincoln, NB, USA). Plate washer was purchased from BioTek (Winooski, VT, USA). […] 16% Paraformaldehyde was purchased from Electron Microscopy Sciences (Hatfield, PA, USA). HCT116 cells were maintained in complete growth medium (RPMI supplemented with 10% heat inactivated fetal bovine serum, 1% Penicillin-Streptomycin) and cultured at 37° C. under 5% CO2. N^2-(4-methoxy-3-(3-(pyrrolidin-1-yl)propoxy)phenyl)-N^4,6-dimethyl]pyrimidine-2,4-diamine (synthesis disclosed in International Application WO2017181177A1) was used as a control compound.
HCT116 cells (ATCC) were trypsinized, counted and seeded in assay medium (RPMI supplemented with 10% heat inactivated fetal bovine serum, 1% Penicillin-Streptomycin) at a concentration of 2,000 cells per well to a 384-well cell culture plate with compounds in 50 μl per well. Plates were incubated with at 37° C. under 5% CO2 for 72 hours. After the incubation, 50 μl per well of 8% paraformaldehyde in PBS was added to the plates and incubated at room temperature for 20 minutes. Plates were transferred to a BioTek (EL406) plate washer and washed 5 times with 110 μl per well of wash buffer (1×PBS containing 0.1% Triton X-100). The plates were next blocked with 50 μl of Intercept blocking buffer for 1 hour at room temperature. Blocking buffer was removed and 30 μl per well of monoclonal primary antibody of H3K9me2 (CST) diluted 1:200 in Intercept blocking buffer were added and plates were incubated overnight at 4° C. The plates were then washed 5 times with 110 μl per well of wash buffer (1×PBS containing 0.1% Triton X-100). Next 30 μl per well of secondary was added (1:400 800 CW goat anti-rabbit IgG in blocking buffer) with 1:1000 DRAQ5 in blocking buffer and incubated for 2 hours at room temperature. The plates were washed 5 times with 110 μl per well of wash buffer (1×PBS containing 0.1% Triton X-100) then with 100 μl per well of water once. Plates were allowed to dry at room temperature then imaged on a Licor Odyssey Infrared Scanner which measured integrated intensity at 700 nm and 800 nm wavelength. Both 700 and 800 channels were scanned.
The average of the ratio values (800 nm/700 nm) for each well was calculated and used to determine the percentage for each test well in the plate. Compounds were serially diluted two-fold in 0.1% DMSO for a total of 10 test concentrations beginning at 10 μM. IC50 curves were generated using duplicate wells per concentration of compound. […] IC50 values were calculated using a non-linear regression of Prism.

[3] = target: T2, human EHMT2 913-1193 (Homo sapiens, UniProt Q96KQ7); experiment: EHMT2 enzyme assay on histone peptide substrate (3H-SAM SPA); details: EHMT2 IC50, recombinant human EHMT2 913-1193, histone peptide substrate
T2 sequence (Q96KQ7 913-1193): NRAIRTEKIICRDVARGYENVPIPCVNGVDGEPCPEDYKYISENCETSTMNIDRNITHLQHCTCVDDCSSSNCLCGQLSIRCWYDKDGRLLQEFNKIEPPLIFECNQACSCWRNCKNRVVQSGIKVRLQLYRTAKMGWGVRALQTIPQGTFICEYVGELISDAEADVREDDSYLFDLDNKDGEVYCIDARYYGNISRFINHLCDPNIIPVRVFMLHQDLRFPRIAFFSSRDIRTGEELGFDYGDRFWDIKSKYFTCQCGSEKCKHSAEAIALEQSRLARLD

Compound	IC50 [1] [µM]	IC50 [2] [µM]	IC50 [3] [µM]
CNc1cc(C)nc(Nc2cc3c(c(N4C[C@H]5CNC[C@H]5C4)c2)OCC3)n1 [Compound 128, N4,6-dimethyl-N2-[7-[rac-(3aS,6aR)-2,3,3a,4,6,6a-hexahydro-1H-pyrrolo[3,4-c]pyrrol-5-yl]-2,3-dihydrobenzofuran-5-yl]pyrimidine-2,4-diamine]	0.5 to 2	0.5 to 2	> 2
CNc1cc(C)nc(Nc2cc3c(c(OCCCN4CCCC4)c2)OCCN3)n1 [Compound 136]	0.1 to 0.5	0.5 to 2	> 2
CNc1cc(C)nc(Nc2cc3c(c(C4=CCN(C)CCC4)c2)OCO3)n1 [Compound 141, N4,6-dimethyl-N2-[7-(1-methyl-2,3,4,7-tetrahydroazepin-5-yl)-1,3-benzodioxol-5-yl]pyrimidine-2,4-diamine]	< 0.1	< 0.1	0.1 to 0.5
CNc1cc(C)nc(Nc2cc3c(c(C4=CCN(CCOC)CCC4)c2)OCO3)n1 [Compound 145, N2-[7-[1-(2-methoxyethyl)-2,3,4,7-tetrahydroazepin-5-yl]-1,3-benzodioxol-5-yl]-N4,6-dimethyl-pyrimidine-2,4-diamine]	0.5 to 2	0.1 to 0.5	> 2
CNc1cc(C)nc(Nc2cc3c(c(C4=CCN(C)CCC4)c2)OCCO3)c1 [Compound 146, N4,6-dimethyl-N2-[5-(1-methyl-2,3,4,7-tetrahydroazepin-5-yl)-2,3-dihydro-1,4-benzodioxin-7-yl]pyridine-2,4-diamine]	0.1 to 0.5	0.1 to 0.5	0.5 to 2
CNc1cc(C)nc(Nc2cc(OCCCN3CCCC3)c3c(c2)OCO3)c1 [Compound 147, N4,6-dimethyl-N2-[7-(3-pyrrolidin-1-ylpropoxy)-1,3-benzodioxol-5-yl]pyridine-2,4-diamine]	0.5 to 2	0.5 to 2	> 2
CNc1cc(C)nc(Nc2cc3c(c(C4=CCC(N)CC4)c2)OCC3)n1 (stereo not drawn) [Compound 148, N2-[7-(4-aminocyclohexen-1-yl)-2,3-dihydrobenzofuran-5-yl]-N4,6-dimethyl-pyrimidine-2,4-diamine]	0.5 to 2	0.5 to 2	> 2
CNc1cc(C)nc(Nc2cc3c(c(C4CCNCC4)c2)OCC3)n1 [Compound 149, N4,6-dimethyl-N2-[7-(4-piperidyl)-2,3-dihydrobenzofuran-5-yl]pyrimidine-2,4-diamine]	> 2	> 2	> 2
CNc1cc(C)nc(Nc2cc3c(c(N4CCNCC4)c2)OCC3)n1 [Compound 152]	> 2	> 2	> 2
CNc1cc(C)nc(Nc2cc3c(c([C@H]4CC[C@H](N)CC4)c2)OCC3)n1 [Compound 153, N2-[7-(4-aminocyclohexyl)-2,3-dihydrobenzofuran-5-yl]-N4,6-dimethyl-pyrimidine-2,4-diamine]	> 2	> 2	> 2
CNc1cc(C)nc(Nc2cc(OCCCN3CCCC3)c3c(c2)OC(F)(F)O3)n1 [Compound 154, N2-[2,2-difluoro-7-(3-pyrrolidin-1-ylpropoxy)-1,3-benzodioxol-5-yl]-N4,6-dimethyl-pyrimidine-2,4-diamine]	< 0.1	0.1 to 0.5	0.5 to 2
CNc1cc(C)nc(Nc2cc3c(c(C4=CCNCC4)c2)OCC3)n1 [Compound 155, N4,6-dimethyl-N2-[7-(1,2,3,6-tetrahydropyridin-4-yl)-2,3-dihydrobenzofuran-5-yl]pyrimidine-2,4-diamine]	0.1 to 0.5	0.1 to 0.5	0.5 to 2

Source: patent US20240368139A1, “NOVEL MODULATORS OF EHMT1 AND EHMT2 AND THERAPEUTIC USE THEREOF” (Tango Therapeutics, Inc., priority 2021, published 2024)
